This note sets out measurements from patent US8933224B2, “Triazine derivatives” (Pfizer Inc., priority 2013, dated 2015).

The experiment deals with rat PDE10 enzyme (Rattus norvegicus (Rat), UniProt Q9QYJ6). Nature of the experiment: PDE10 scintillation proximity assay (SPA), inhibition of rat PDE10 enzyme activity. Conditions: geometric mean of 2-4 determinations unless otherwise indicated (b: ≧5 determinations; c: single determination). It is filed as biochemical. Here is the method: PDE10 activity was measured using a scintillation assay (SPA-based method) similar to that previously described by Seeger, T. F. et al., Brain Research 985 (2003) 113-126. The compounds' relative activity as PDE10 inhibitors was investigated by assaying a fixed amount of enzyme in the presence of the test compound and low substrate concentration (cAMP) such that an IC50 could be determined. […] The assay is performed in a 384-well format with 50 μL assay buffer (50 mM TRIS pH 7.5; 1.3 mM MgCl2; 0.01% Brij) containing enough PDE10 to convert ˜20% of 20 nM ^3H-cAMP, and a range of inhibitors. Reactions are incubated for 30 minutes at 25° C. The addition of 20 μL of 8 mg/ml yttrium silicate SPA beads (PerkinElmer) stops the reaction. The plates are sealed (TopSeal, PerkinElmer) and the beads are allowed to settle for 8 hrs, after which they are read on the Trilux Microbeta overnight. ^1Rat enzyme preparation:^2Human enzyme preparation:
The recombinant Bacmid was isolated and used to transfect sf9 insect cells to generate a viral stock. To generate cell paste for purification, sf21 cells were infected with the virus stock and cells were harvested 72 hours after infection as described in Seeger, T. F. et al., Brain Research 985 (2003) 113-126. Insect cell paste was lysed and after centrifugation, the supernatant was chromatographed on Ni-NTA agarose (Qiagen) followed by Mono Q (GE Healthcare Life Sciences) as described in Seeger, T. F. et al., Brain Research 985 (2003) 113-126.
A general note: In a scintillation proximity assay essentially only radioactivity close to the scintillant gives light.

pIC50: −log10 of the molar value.

Chain of rat PDE10 enzyme (Q9QYJ6 24-794): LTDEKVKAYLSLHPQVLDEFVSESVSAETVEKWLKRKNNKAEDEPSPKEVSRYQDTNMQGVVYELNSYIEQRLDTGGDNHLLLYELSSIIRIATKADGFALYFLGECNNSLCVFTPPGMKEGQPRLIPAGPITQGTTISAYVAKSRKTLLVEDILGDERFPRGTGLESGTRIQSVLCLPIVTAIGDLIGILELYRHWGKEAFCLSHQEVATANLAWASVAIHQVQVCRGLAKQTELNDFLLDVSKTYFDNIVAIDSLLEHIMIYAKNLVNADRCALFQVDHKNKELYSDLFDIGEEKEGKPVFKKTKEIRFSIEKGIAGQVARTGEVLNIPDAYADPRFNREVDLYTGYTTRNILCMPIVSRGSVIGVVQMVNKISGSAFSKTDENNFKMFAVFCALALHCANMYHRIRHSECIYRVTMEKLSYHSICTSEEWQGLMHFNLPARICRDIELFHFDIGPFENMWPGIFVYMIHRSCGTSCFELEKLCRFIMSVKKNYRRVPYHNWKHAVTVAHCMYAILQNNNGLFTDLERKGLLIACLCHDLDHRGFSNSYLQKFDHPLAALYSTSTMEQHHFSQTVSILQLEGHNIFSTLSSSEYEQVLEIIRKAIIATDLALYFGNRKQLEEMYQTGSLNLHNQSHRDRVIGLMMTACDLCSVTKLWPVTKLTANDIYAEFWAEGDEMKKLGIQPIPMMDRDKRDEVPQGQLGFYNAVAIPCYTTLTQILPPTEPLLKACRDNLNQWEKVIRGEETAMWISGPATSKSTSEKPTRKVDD

On to `Cc1nc(C2CCOCC2)c2c(N3CCc4nn(C)c(C(C)C)c4C3)ncnn12` [Example 104, 7-methyl-4[2-methyl-3-(propan-2-yl)-2,4,6,7-tetrahydro-5H-pyrazolo[4,3-c]pyridin-5-yl]-5-(tetrahydro-2H-pyran-4-yl)imidazo[5,1-f][1,2,4]triazine], for which the pIC50 is 8.97.
To `Cc1nc([C@@H]2CCOC2)c2c(N3CCc4nc(C5CC5)nc(O)c4C3)ncnn12` [Example 52, 2-cyclopropyl-6-{7-methyl-5-[(3S)-tetrahydrofuran-3-yl]imidazo[5,1-f][1,2,4]triazin-4-yl}-5,6,7,8-tetrahydropyrido[4,3-d]pyrimidin-4-ol] belongs 10.00; to `Cc1nc2c(o1)CN(c1ncnn3c(C)nc([C@H]4CCOC4)c13)CC2` [Example 76, 7-methyl-4-(2-methyl-6,7-dihydro[1,3]oxazolo[5,4-c]pyridin-5(4H)-yl)-5-[(3R)-tetrahydrofuran-3-yl]imidazo[5,1-f][1,2,4]triazine], 7.64.
To `COc1cc2c(cc1OC)CN(c1ncnn3c(C)nc(-c4ccccc4F)c13)CC2` [Example 42, 2-[5-(2-fluorophenyl)-7-methylimidazo[5,1-f][1,2,4]triazin-4-yl]-6,7-dimethoxy-1,2,3,4-tetrahydroisoquinoline] belongs over 8.49; to `Cc1nc(C2CCCO2)c2c(N3CCc4nc(C5CC5)ncc4C3)ncnn12` (stereo not shown) [Example 22, 2-cyclopropyl-6-[7-methyl-5-(tetrahydrofuran-2-yl)imidazo[5,1-f][1,2,4]triazin-4-yl]-5,6,7,8-tetrahydropyrido[4,3-d]pyrimidine], 8.28; to `Cc1nn(C)c2c1CN(c1ncnn3c(C)nc([C@@H]4CCOC4)c13)CC2` [Example 93, 4-(1,3-dimethyl-1,4,6,7-tetrahydro-5H-pyrazolo[4,3-c]pyridin-5-yl)-7-methyl-5-[(3S)-tetrahydrofuran-3-yl]imidazo[5,1-f][1,2,4]triazine], 9.12.
Molecule `Cc1nc([C@@H]2CCOC2)c2c(N3CCc4c(O)nc(C5CCCC5)nc4C3)ncnn12` [Example 158, 2-cyclopentyl-7-{7-methyl-5-[(3S)-tetrahydrofuran-3-yl]imidazo[5,1-f][1,2,4]triazin-4-yl}-5,6,7,8-tetrahydropyrido[3,4-d]pyrimidin-4-ol] gave a pIC50 of 9.64.
To `Cc1nc(-c2ccccc2F)c2c(N3CCc4ncccc4C3)ncnn12` [Example 151, 6-[5-(2-fluorophenyl)-7-methylimidazo[5,1-f][1,2,4]triazin-4-yl]-5,6,7,8-tetrahydro-1,6-naphthyridine] belongs 9.00; to `Cc1nc(-c2ccccc2F)c2c(N3CCc4ncncc4C3)ncnn12` [Example 110, 6-[5-(2-fluorophenyl)-7-methylimidazo[5,1-f][1,2,4]triazin-4-yl]-5,6,7,8-tetrahydropyrido[4,3-d]pyrimidine], 7.70; to `CCc1nn(C)c2c1CN(c1ncnn3c(C)nc(-c4ccc(F)cc4Cl)c13)CC2` [Example 119, 5-(2-chloro-4-fluorophenyl)-4-(3-ethyl-1-methyl-1,4,6,7-tetrahydro-5H-pyrazolo[4,3-c]pyridin-5-yl)-7-methylimidazo[5,1-f][1,2,4]triazine], 9.28.
To `CCc1noc2c1CN(c1ncnn3c(C)nc([C@@H]4CCOC4)c13)CC2` [Example 32] belongs 8.43.
The value for `Cc1nc([C@@H]2CCOC2)c2c(N3CCc4nccnc4C3)ncnn12` [Example 171, 6-{7-methyl-5-[(3S)-tetrahydrofuran-3-yl]imidazo[5,1-f][1,2,4]triazin-4-yl}-5,6,7,8-tetrahydropyrido[3,4-b]pyrazine] was 8.59; that for `CCc1c2c(nn1C)CCN(c1ncnn3c(C)nc(C4CCOCC4)c13)C2` [Example 105, 4-(3-ethyl-2-methyl-2,4,6,7-tetrahydro-5H-pyrazolo[4,3-c]pyridin-5-yl)-7-methyl-5-(tetrahydro-2H-pyran-4-yl)imidazo[5,1-f][1,2,4]triazine] was 8.73.

As usually defined, the pIC50 is −log10 of the IC50, conventionally taken in molar units. A high value points to a low IC50.
